Measured values from PMC9271247, “Evaluation of antiplasmodial activity in silico and in vitro of N-acylhydrazone derivatives” (BMC Chemistry, 2022).

test system: human lung fibroblast cell line WI-26VA4 (ATCC CCL-95.1); experiment: in vitro; settings: 48 h
Description: (§1) Negative controls were composed of cells without treatment. Five serial dilutions (1:10) were made from a stock solution (10 mg mL − 1) using RPMI supplemented with 1% FBS. Cell viability was evaluated after 48 h of incubation by discarding the medium and adding 100 μL of 5% MTT, followed by 3 h of incubation. Then, the supernatant was discarded, and insoluble formazan product was dissolved in DMSO. The optical density (OD) of each well was measured using a microplate spectrophotometer at 550 nm. The OD of untreated control cells was defined as 100% cell viability and all assays were performed in triplicate. The selectivity index (SI) of samples was calculated by following Eq. 1 [29].1 SI=LC50of WI-26VA4 cell line/IC50ofP.falciparumstrain W2

| Structure (SMILES) | CC50 |
| --- | --- |
| O=C(N/N=C/c1cccc(O)c1)c1ccccc1 [AH1, N'-[(1E)-(3-hydroxyphenyl)methylene]benzohydrazide] | > 100 µM |
| O=C(N/N=C/c1cccc(O)c1)c1ccc(Cl)cc1 [AH2, 4-chloro-N'-[(1E)-(3-hydroxyphenyl)methylene]benzohydrazide] | > 100 µM |
| O=C(N/N=C/c1cccc(O)c1)c1ccc(O)cc1 [AH4, 4-hydroxy-N'-[(1E)-(3-hydroxyphenyl)methylene]benzohydrazide] | > 100 µM |
| O=C(N/N=C/c1cccc(O)c1)c1ccc(NC(=O)c2ccccc2)cc1 [AH5, N-(4-{[(2E)-2-(3-hydroxybenzylidene)hydrazino]carbonyl}phenyl) benzamide] | > 100 µM |

test system: not listed separately; experiment: in vitro; settings: human, LC50 ± SD WI-26VA4
Description: as §1

| Structure (SMILES) | CC50 at 48 h |
| --- | --- |
| O=C(N/N=C/c1cccc(O)c1)c1ccccc1 [AH1, N'-[(1E)-(3-hydroxyphenyl)methylene]benzohydrazide] | > 100 µM |
| O=C(N/N=C/c1cccc(O)c1)c1ccc(Cl)cc1 [AH2, 4-chloro-N'-[(1E)-(3-hydroxyphenyl)methylene]benzohydrazide] | > 100 µM |
| O=C(N/N=C/c1cccc(O)c1)c1ccc([N+](=O)[O-])cc1 [AH3, N'-[(1E)-(3-hydroxyphenyl)methylene]-4-nitrobenzohydrazide] | 100 ± 0.19 µM |
| O=C(N/N=C/c1cccc(O)c1)c1ccc(O)cc1 [AH4, 4-hydroxy-N'-[(1E)-(3-hydroxyphenyl)methylene]benzohydrazide] | > 100 µM |
| O=C(N/N=C/c1cccc(O)c1)c1ccc(NC(=O)c2ccccc2)cc1 [AH5, N-(4-{[(2E)-2-(3-hydroxybenzylidene)hydrazino]carbonyl}phenyl) benzamide] | > 100 µM |
| O=C(O)CCC(=O)Nc1ccc(C(=O)N/N=C/c2cccc(O)c2)cc1 [AH6, 4-[(4-{[(2E)-2-(3-hydroxybenzylidene)hydrazino]carbonyl}phenyl)amino]-4-oxobutanoic acid] | 100 ± 0.17 µM |
| O=C(N/N=C/c1cccc(O)c1)c1ccncc1 [AH7, N'-[(1E)-(3-hydroxyphenyl)methylene]isonicotinohydrazide] | 100 ± 0.13 µM |
| CO[C@H]1O[C@@H]2O[C@@]3(C)CC[C@H]4[C@H](C)CC[C@@H]([C@H]1C)[C@@]24OO3 [Artemether, reference compound] | 100 ± 0.18 µM |

test system: Plasmodium falciparum chloroquine resistant (W2) strain; experiment: In vitro antiplasmodial activity, blood smear (traditional) test, 48 h; assay type: cell-based; settings: W2, 48 h, read-out: IC50 ± SD P. falciparum
Description: The parasites were synchronized using sorbitol treatment and the parasitemia was microscopically evaluated with Giemsa-stained blood smears.
After 48 h, blood smears were prepared, coded, stained with giemsa and examined at 1000×magnification. The parasitemia of controls (considered as 100% growth) was compared to test cultures, and then the percentage of infected red blood cells was calculated.
The results were expressed as mean of half-maximal inhibitory dose (IC50), with different drug concentrations performed in triplicate and compared with drug-free controls. Curve fitting was performed using OriginPro® 8.0 software (Origin Lab Corporation, Northampton, MA, USA).

| Structure (SMILES) | IC50 |
| --- | --- |
| O=C(N/N=C/c1cccc(O)c1)c1ccccc1 [AH1, N'-[(1E)-(3-hydroxyphenyl)methylene]benzohydrazide] | 0.19 ± 0.1 µM |
| O=C(N/N=C/c1cccc(O)c1)c1ccc([N+](=O)[O-])cc1 [AH3, N'-[(1E)-(3-hydroxyphenyl)methylene]-4-nitrobenzohydrazide] | > 1 µM |
| CO[C@H]1O[C@@H]2O[C@@]3(C)CC[C@H]4[C@H](C)CC[C@@H]([C@H]1C)[C@@]24OO3 [Artemether, reference compound] | < 1.01 µM |
| CCN(CC)CCCC(C)Nc1ccnc2cc(Cl)ccc12 (stereo not drawn) [Chloroquine, reference compound] | 0.057 ± 0.14 µM |

Second part, the compound after the results:

| IC50 | Structure (SMILES) |
| --- | --- |
| 2.15 ± 0.09 µM | O=C(N/N=C/c1cccc(O)c1)c1ccc(Cl)cc1 [AH2, 4-chloro-N'-[(1E)-(3-hydroxyphenyl)methylene]benzohydrazide] |
| 0.09 ± 0.05 µM | O=C(N/N=C/c1cccc(O)c1)c1ccc(O)cc1 [AH4, 4-hydroxy-N'-[(1E)-(3-hydroxyphenyl)methylene]benzohydrazide] |
| 0.07 ± 0.07 µM | O=C(N/N=C/c1cccc(O)c1)c1ccc(NC(=O)c2ccccc2)cc1 [AH5, N-(4-{[(2E)-2-(3-hydroxybenzylidene)hydrazino]carbonyl}phenyl) benzamide] |
| > 1 µM | O=C(O)CCC(=O)Nc1ccc(C(=O)N/N=C/c2cccc(O)c2)cc1 [AH6, 4-[(4-{[(2E)-2-(3-hydroxybenzylidene)hydrazino]carbonyl}phenyl)amino]-4-oxobutanoic acid] |
| > 1 µM | O=C(N/N=C/c1cccc(O)c1)c1ccncc1 [AH7, N'-[(1E)-(3-hydroxyphenyl)methylene]isonicotinohydrazide] |
